Patent US6103707A, “9-(2-deoxy-2-fluoro-4-thio-beta-D-arabinofuranosyl)purine derivatives” (Yamasa Corporation, priority 1996, dated 2000)
Converted amounts (≈) assume the structure as drawn. Read-outs that look alike come from different tables or passages of the source.

Columns and labels:
HCMV = assay: Anti-Human Cytomegalovirus (HCMV) activity (plaque-formation inhibition in human embryonic lung fibroblasts); format: cell-based; settings: Human betaherpesvirus 5, AD169, Fibroblast, HCMV AD-169 strain, 4 days plus further 4 to 5 days, 50% plaque-formation inhibition, read-out: Antiviral Activity (ED50) HCMV
Experimental: (3) Anti-Human Cytomegalovirus (HCMV) Activity
(§1) 1. Fibroblasts derived from human embryonic lung tissue are subcultured in an Eagle's MEM supplemented with 10% of pseudo fetal calf serum (Mitsubishi Chemical Corp.), by passing at 1: (2-4) split every 4 or 5 days.
2. A cell suspension obtained from the parent cells by passing at 1:2 split is seeded on a 24-well multiplate at a rate of 0.8 ml/well, and incubated in a CO2 -incubator at 37° C. for 4 days.
3. The culture medium is discarded; and 400 microlitters of a serum (5%)-added Eagle's MEM containing 50 to 100 PFU of the AD-169 strain of HCMV is inoculated, thereby allowing the cells to adsorb the virus at 37° C. for 1 hour.
4. The same amount of an MEM containing a test agent is added without discarding the virus liquid, and the resultant is incubated in a CO2 -incubator at 37° C. for 4 days. In general, the test agent is diluted serially by 1/2 log 10.
5. The culture medium is replaced with a serum (2.5%)-added Eagle's MEM containing the test agent with the same concentration and 0.8% of methyl cellulose, and incubation is continued for a further 4 to 5 days.
6. The culture medium is discarded, and the resultant is dyed with May-Gruenwald's and Giemsa (×10) solutions; the number of plaques in each well is counted under a stereoscopic light microscope; and the rate of plaque-formation inhibition is obtained from the same equation as is used in the above (1).
7. The rates of plaque-formation inhibition are plotted against the concentrations (in logarithm) of the test agent, and, from this dose--plaque-formation inhibition curve, 50% inhibitory concentration (ED50) of the test agent is obtained.

HSV-1 = assay: Anti-HSV-1 activity (plaque-formation inhibition in human embryonic lung fibroblasts); format: cell-based, herpes simplex virus 1 (HSV-1), VR-3 strain; settings: Human alphaherpesvirus 1, Fibroblast, read-out: Antiviral Activity (ED50) HSV-1
Experimental: (§2) (1) Anti-HSV-1 Activity and Anti-HSV-2 Activity
as §1
(§3) 2. A cell suspension obtained from the parent cells by passing at 1:2 split is seeded on a 12-well multiplate at a rate of 2 ml/well, and incubated in a CO2 -incubator at 37° C. for 4 days.
(§4) 3. The culture medium is discarded; a Hanks' MEM (250 microlitters) containing 50 to 150 PFU of the VR-3 strain of HSV-1 or the MS strain of HSV-2 is inoculated, thereby allowing the cells to adsorb the virus at 37° C. for 30 minutes; and then the virus liquid is discarded.
(§5) 4. A serum (2.5%)-added Eagle's MEM containing a test agent and 0.8% of methyl cellulose is added; and the resultant is incubated in a CO2 -incubator at 37° C. for 2 to 3 days. In general, the test agent is diluted serially by 1/2 log 10.
(§6) 5. The culture medium is discarded, and the resultant is dyed with a 0.5% solution of crystal violet; the number of plaques in each well is counted under a stereoscopic light microscope; and the rate of plaque-formation inhibition is obtained from the equation below.
(§7) 6. The rates of plaque-formation inhibition are plotted against the concentrations (in logarithm) of the test agent, and, from this dose--plaque-formation inhibition curve, 50% inhibitory concentration (ED50) of the test agent is obtained. [formula] (2) Anti-Varicella Zoster Virus (VZV) Activity

VZV = assay: microbe, parasite or virus in culture; format: cell-based, varicella-zoster virus (VZV), Oka strain; settings: Human alphaherpesvirus 3, Fibroblast, read-out: Antiviral Activity (ED50) VZV
Text: as §7, §1, §3
3. The culture medium is discarded; and 750 microlitters of a serum (5%)-added Eagle's MEM containing 50 to 100 PFU of the Oka strain of VZV is inoculated, thereby allowing the cells to adsorb the virus at 37° C. for 1 hour.
4. The same amount of an MEM containing a test agent is added without discarding the virus liquid, and the resultant is incubated in a CO2 -incubator at 37° C. In general, the test agent is diluted serially by 1/2 log 10.
5. After 4-5 day incubation, the culture medium is discarded, and the resultant is dyed with a 0.5% solution of crystal violet; the number of plaques in each well is counted under a stereoscopic light microscope; and the rate of plaque-formation inhibition is obtained from the same equation as is used in the above (1).
6. The rates of plaque-formation inhibition are plotted against the concentrations (in logarithm) of the test agent, and, from this dose--plaque-formation inhibition curve, 50% inhibitory concentration (ED50) of the test agent is obtained.

HSV-2 = assay: Anti-HSV-2 activity (plaque-formation inhibition in human embryonic lung fibroblasts); format: cell-based, herpes simplex virus 2 (HSV-2), MS strain; settings: Human alphaherpesvirus 2, Fibroblast, read-out: Antiviral Activity (ED50) HSV-2
Experimental: as §2, §1, §3, §4, §5, §6, §7

[1] = HSV-1 VR-3 strain, human embryonic lung fibroblasts, 2 to 3 days, 50% plaque-formation inhibition
[2] = HSV-2 MS strain, human embryonic lung fibroblasts, 2 to 3 days, 50% plaque-formation inhibition

| Structure (SMILES) | EC50 (HCMV) [µg/mL] | EC50 (HSV-1; [1]) [µg/mL] | EC50 (VZV) [µg/mL] | EC50 (HSV-2; [2]) [µg/mL] | EC50 (HSV-1) [µg/mL] | EC50 (HSV-2) [µg/mL] |
| --- | --- | --- | --- | --- | --- | --- |
| Nc1nc(N)c2ncn([C@@H]3S[C@H](CO)[C@@H](O)[C@@H]3F)c2n1 [Synthesis Example 2, 9-(2-deoxy-2-fluoro-4-thio-beta-D-arabinofuranosyl)-2,6-diaminopurine] | 0.066 | 0.0057 (≈ 0.019 µM) | 0.101 (≈ 0.336 µM) | 0.05 (≈ 0.166 µM) |  |  |
| Nc1nc2c(ncn2COCCO)c(=O)[nH]1 [Control Example 2, acyclovir, reference compound] | 6.9 | 0.14 (≈ 0.622 µM) |  | 0.23 (≈ 1.02 µM) |  |  |
| Nc1nc(O)c2ncn(COC(CO)CO)c2n1 [Control Example 3, ganciclovir, reference compound] | 0.21 | 0.016 (≈ 0.0627 µM) | 3.1 (≈ 12.1 µM) | 0.039 (≈ 0.153 µM) |  |  |
| Nc1nc2c(ncn2[C@@H]2S[C@H](CO)[C@@H](O)[C@@H]2F)c(=O)[nH]1 [Synthesis Example 3, 9-(2-deoxy-2-fluoro-4-thio-beta-D-arabinofuranosyl)guanine] | 0.078 | 0.0091 (≈ 0.0302 µM) | 0.095 (≈ 0.315 µM) | 0.063 (≈ 0.209 µM) |  |  |
| Nc1ncnc2c1ncn2[C@@H]1S[C@H](CO)[C@@H](O)[C@@H]1F [Synthesis Example 1, 9-(2-deoxy-2-fluoro-4-thio-beta-D-arabinofuranosyl)adenine] | 1.41 | 1.61 (≈ 5.64 µM) | 3.04 (≈ 10.7 µM) | 3.07 (≈ 10.8 µM) |  |  |
| Nc1ncnc2c1ncn2[C@@H]1O[C@H](CO)[C@@H](O)[C@@H]1O [Control Example 1, araA, reference compound] | 6.5 |  | 1.17 (≈ 4.38 µM) |  | 17.1 (≈ 64 µM) | 6.6 (≈ 24.7 µM) |
